The source of these data is the supplement of paper PMC11061612.

The subject of test [1] is U-698-M. Briefly: combination Emax (second highest fraction inhibited in the dose matrix, 72 h); higher = more inhibition. The settings on record: B-Cell Non-Hodgkin's Lymphoma. The procedure, abridged:
(§1)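 Cell lines grown in DMEM/F12 or RPMI with 10% FBS were plated in 1536-well plates and held 24 hours at 37°C, 5% CO2 before 72 hours of exposure to two-drug dose matrices, with DMSO typically at 0.2%. CellTiter-Glo 2.0 luminescence gave viability, which was converted to inhibition. Vehicle wells were set to 0 and blank wells to 1. Combination Emax is the second-highest inhibition in the matrix, and Bliss excess is the observed combination effect minus the expected EA + EB − EA·EB, where EA and EB are the single-agent effects.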

Test [2] relates to U-698-M. Nature of the test: Bliss excess, mean over the matrix (fraction); higher = more synergy. The following applies: U-[…], B-Cell Non-Hodgkin's Lymphoma. The procedure, abridged:
as §1

Where [3] appears, read: first compound max 1 µM, partner max 1 µM, 7x7.
Where [4] appears, read: first compound max 1 µM, partner max 10 µM, 7x7.
[5] abbreviates: first compound max 1 µM, partner max 3 µM, 7x7, may be a limit of the assay.
Where [6] appears, read: first compound max 1 µM, partner max 3 µM, 7x7.
[7] abbreviates: first compound max 1 µM, partner max 1 µM, 7x7, may be a limit of the assay.
[8] abbreviates: first compound max 1 µM, partner max 10 µM, 7x7, may be a limit of the assay.
Where [9] appears, read: first compound max 1 µM, partner max 0.3 µM, 7x7.
[10] abbreviates: first compound max 10 µM, partner max 10 µM, 7x7.
The mark [11] stands for this setting: first compound max 10 µM, partner max 0.3 µM, 7x7.
Setting [12] is: first compound max 10 µM, partner max 1 µM.
[13] abbreviates: first compound max 10 µM, partner max 1 µM, 7x7.
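Wherever Bliss excess, mean over the matrix is given: after 72 h of two-drug dosing.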

For the molecule `COc1nnc2ccc(N3CCC(c4ccc(OCCN5CCN(C)C(=O)[C@H]5C)cc4)CC3)nn12` [AZD5153] + CC1(C)CCC(CN2CCN(c3ccc(C(=O)NS(=O)(=O)c4ccc(NCC5CCOCC5)c([N+](=O)[O-])c4)c(Oc4cnc5[nH]ccc5c4)c3)CC2)=C(c2ccc(Cl)cc2)C1 [Venetoclax], the “combination Emax” value in test [1] (setting [3]) was 0.671. The Bliss excess in test [2] (setting [3]) was -0.0463.
With `COc1nnc2ccc(N3CCC(c4ccc(OCCN5CCN(C)C(=O)[C@H]5C)cc4)CC3)nn12` [AZD5153] + CCN(CCO)CCCOc1ccc2c(Nc3cc(CC(=O)Nc4cccc(F)c4)[nH]n3)ncnc2c1 [AZD2811], the “combination Emax” value in test [1] (setting [3]) was 0.673. Further, the Bliss excess in test [2] (setting [3]) is -0.0563.
Take `COc1nnc2ccc(N3CCC(c4ccc(OCCN5CCN(C)C(=O)[C@H]5C)cc4)CC3)nn12` [AZD5153] + C[C@@H]1COCCN1C2=NC(=NC(=C2)C3(CC3)[S@](=N)(=O)C)C4=C5C=CNC5=NC=C4 [AZD6738]: the “combination Emax” value in test [1] (setting [4]) came to 0.912. Moreover, the Bliss excess in test [2] (setting [4]) was -0.0616.
Regarding `COc1nnc2ccc(N3CCC(c4ccc(OCCN5CCN(C)C(=O)[C@H]5C)cc4)CC3)nn12` [AZD5153] + Cc1c2c(nn1C)CSCc1cc(n(C)n1)CSc1cc(c3ccccc3c1)OCCCc1c(C(=O)O)n(C)c3c-2c(Cl)ccc13 [AZD5991], the “combination Emax” value in test [1] (setting [3]) is 0.998. Besides, the Bliss excess in test [2] (setting [3]) was -0.0271.
Turning to `COc1nnc2ccc(N3CCC(c4ccc(OCCN5CCN(C)C(=O)[C@H]5C)cc4)CC3)nn12` [AZD5153] + Cn1cnc2c(F)c(Nc3ccc(Br)cc3Cl)c(C(=O)NOCCO)cc21 [Selumetinib], in test [1] (setting [4]), the “combination Emax” value was 0.622. Besides, the Bliss excess in test [2] (setting [4]) is -0.0573.
For `Cc1c2c(nn1C)CSCc1cc(n(C)n1)CSc1cc(c3ccccc3c1)OCCCc1c(C(=O)O)n(C)c3c-2c(Cl)ccc13` [AZD5991] + C1CN(CCC1(C(=O)N[C@@H](CCO)C2=CC=C(C=C2)Cl)N)C3=NC=NC4=C3C=CN4 [Capivasertib], the “combination Emax” value in test [1] (setting [5]) came out at 1. In test [2] (setting [6]), the Bliss excess was -0.0016.
For `Cc1c2c(nn1C)CSCc1cc(n(C)n1)CSc1cc(c3ccccc3c1)OCCCc1c(C(=O)O)n(C)c3c-2c(Cl)ccc13` [AZD5991] + CC1(C)CCC(CN2CCN(c3ccc(C(=O)NS(=O)(=O)c4ccc(NCC5CCOCC5)c([N+](=O)[O-])c4)c(Oc4cnc5[nH]ccc5c4)c3)CC2)=C(c2ccc(Cl)cc2)C1 [Venetoclax], the “combination Emax” value in test [1] (setting [7]) amounted to 1. Besides, in test [2] (setting [3]), the Bliss excess was -0.0069.
Take `Cc1c2c(nn1C)CSCc1cc(n(C)n1)CSc1cc(c3ccccc3c1)OCCCc1c(C(=O)O)n(C)c3c-2c(Cl)ccc13` [AZD5991] + CC(=O)O[C@H]1C(=O)[C@@]2(C)[C@H]([C@H](OC(=O)c3ccccc3)[C@]3(O)C[C@H](OC(=O)[C@H](O)[C@@H](NC(=O)c4ccccc4)c4ccccc4)C(C)=C1C3(C)C)[C@]1(OC(C)=O)CO[C@@H]1C[C@@H]2O [Paclitaxel]: in test [1] (setting [5]), the “combination Emax” value worked out at 1. Besides, in test [2] (setting [6]), the Bliss excess was -0.0123.
As to `Cc1c2c(nn1C)CSCc1cc(n(C)n1)CSc1cc(c3ccccc3c1)OCCCc1c(C(=O)O)n(C)c3c-2c(Cl)ccc13` [AZD5991] + CCN(CCO)CCCOc1ccc2c(Nc3cc(CC(=O)Nc4cccc(F)c4)[nH]n3)ncnc2c1 [AZD2811], in test [1] (setting [7]), the “combination Emax” value was determined as 1. Moreover, the Bliss excess in test [2] (setting [3]) is 0.0024.
For `Cc1c2c(nn1C)CSCc1cc(n(C)n1)CSc1cc(c3ccccc3c1)OCCCc1c(C(=O)O)n(C)c3c-2c(Cl)ccc13` [AZD5991] + CN(C)CCCOc1ccc(-c2ccc3ncc4c(c3c2)n(C2CCOCC2)c(=O)n4C)cn1 [AZD0156] the same measures were 1 and 0.0036.
In the case of `Cc1c2c(nn1C)CSCc1cc(n(C)n1)CSc1cc(c3ccccc3c1)OCCCc1c(C(=O)O)n(C)c3c-2c(Cl)ccc13` [AZD5991] + CS(=O)(=O)CCNCc1ccc(-c2ccc3ncnc(Nc4ccc(OCc5cccc(F)c5)c(Cl)c4)c3c2)o1 [Lapatinib], the “combination Emax” value in test [1] (setting [4]) turned out to be 0.992. For the same molecule, in test [2] (setting [4]), the Bliss excess was 0.0295.
As for `Cc1c2c(nn1C)CSCc1cc(n(C)n1)CSc1cc(c3ccccc3c1)OCCCc1c(C(=O)O)n(C)c3c-2c(Cl)ccc13` [AZD5991] + C[C@@H]1COCCN1C2=NC(=NC(=C2)C3(CC3)[S@](=N)(=O)C)C4=C5C=CNC5=NC=C4 [AZD6738], the “combination Emax” value in test [1] (setting [8]) was determined as 1. In test [2] (setting [4]), the Bliss excess is -0.0194.
Take `Cc1c2c(nn1C)CSCc1cc(n(C)n1)CSc1cc(c3ccccc3c1)OCCCc1c(C(=O)O)n(C)c3c-2c(Cl)ccc13` [AZD5991] + C[C@@H](Nc1cc(F)cc(F)c1)c1cc(C(=O)N(C)C)cc2c(=O)cc(N3CCOCC3)oc12 [AZD8186]: in test [1] (setting [5]), the “combination Emax” value was 1. Besides, the Bliss excess in test [2] (setting [6]) was -0.0258.
As to `Cc1c2c(nn1C)CSCc1cc(n(C)n1)CSc1cc(c3ccccc3c1)OCCCc1c(C(=O)O)n(C)c3c-2c(Cl)ccc13` [AZD5991] + Cc1cc2ncnn2cc1Nc1ncc2c(n1)n(C1CCOCC1)c(=O)n2C [AZD7648], the “combination Emax” value in test [1] (setting [8]) turned out to be 1. Besides, the Bliss excess in test [2] (setting [4]) was found to be 0.0183.
`Cc1c2c(nn1C)CSCc1cc(n(C)n1)CSc1cc(c3ccccc3c1)OCCCc1c(C(=O)O)n(C)c3c-2c(Cl)ccc13` [AZD5991] + Cn1cnc2c(F)c(Nc3ccc(Br)cc3Cl)c(C(=O)NOCCO)cc21 [Selumetinib]: the “combination Emax” value in test [1] (setting [5]) came to 1. The Bliss excess in test [2] (setting [6]) was -0.0034.
`Cc1c2c(nn1C)CSCc1cc(n(C)n1)CSc1cc(c3ccccc3c1)OCCCc1c(C(=O)O)n(C)c3c-2c(Cl)ccc13` [AZD5991] + Nc1ccn([C@@H]2O[C@H](CO)[C@@H](O)C2(F)F)c(=O)n1 [Gemcitabine]: the “combination Emax” value in test [1] (setting [9]) was 0.966. Besides, in test [2] (setting [9]), the Bliss excess came out at 0.0211.
`C[C@@H]1COCCN1c1cc(C2([S@](C)(=N)=O)CC2)nc(-c2ccnc3[nH]ccc23)n1` [AZD6738] + C1CC(C1)(C(=O)[O-])C(=O)[O-].N.N.[Pt+2] [Carboplatin]: the “combination Emax” value in test [1] (setting [10]) is 0.84. Further, the Bliss excess in test [2] (setting [10]) is -0.0625.
As to `C[C@@H]1COCCN1c1cc(C2([S@](C)(=N)=O)CC2)nc(-c2ccnc3[nH]ccc23)n1` [AZD6738] + Nc1ccn([C@@H]2O[C@H](CO)[C@@H](O)C2(F)F)c(=O)n1 [Gemcitabine], the “combination Emax” value in test [1] (setting [11]) was 0.871. For the same molecule, the Bliss excess in test [2] (setting [11]) was 0.0526.
Consider `C[C@@H]1COCCN1c1cc(C2([S@](C)(=N)=O)CC2)nc(-c2ccnc3[nH]ccc23)n1` [AZD6738] + O=C(c1cc(Cc2n[nH]c(=O)c3ccccc23)ccc1F)N1CCN(C(=O)C2CC2)CC1 [Olaparib], for which the “combination Emax” value in test [1] (setting [10]) was found to be 0.934. Further, the Bliss excess in test [2] (setting [10]) was -0.0503.
As for `Cc1cc2ncnn2cc1Nc1ncc2c(n1)n(C1CCOCC1)c(=O)n2C` [AZD7648] + C=CCn1c(=O)c2cnc(Nc3ccc(N4CCN(C)CC4)cc3)nc2n1-c1cccc(C(C)(C)O)n1 [AZD1775], in test [1] (setting [12]), the “combination Emax” value is 0.971. In addition, the Bliss excess in test [2] (setting [12]) is -0.0156.
Regarding `Cc1cc2ncnn2cc1Nc1ncc2c(n1)n(C1CCOCC1)c(=O)n2C` [AZD7648] + CCN(CCO)CCCOc1ccc2c(Nc3cc(CC(=O)Nc4cccc(F)c4)[nH]n3)ncnc2c1 [AZD2811], the “combination Emax” value in test [1] (setting [13]) came to 0.444. The Bliss excess in test [2] (setting [13]) worked out at 0.0631.
Take `Cc1cc2ncnn2cc1Nc1ncc2c(n1)n(C1CCOCC1)c(=O)n2C` [AZD7648] + CN(C)CCCOc1ccc(-c2ccc3ncc4c(c3c2)n(C2CCOCC2)c(=O)n4C)cn1 [AZD0156]: the “combination Emax” value in test [1] (setting [13]) was 0.488. Besides, in test [2] (setting [13]), the Bliss excess worked out at 0.0015.
`Cc1cc2ncnn2cc1Nc1ncc2c(n1)n(C1CCOCC1)c(=O)n2C` [AZD7648] + COc1cc([C@@H]2c3cc4c(cc3[C@@H](O[C@@H]3O[C@@H]5CO[C@@H](C)O[C@H]5[C@H](O)[C@H]3O)[C@H]3COC(=O)[C@H]23)OCO4)cc(OC)c1O [Etoposide]: the “combination Emax” value in test [1] (setting [10]) was 0.823. In test [2] (setting [10]), the Bliss excess came out at 0.0866.
With `Cc1cc2ncnn2cc1Nc1ncc2c(n1)n(C1CCOCC1)c(=O)n2C` [AZD7648] + C[C@@H]1COCCN1C2=NC(=NC(=C2)C3(CC3)[S@](=N)(=O)C)C4=C5C=CNC5=NC=C4 [AZD6738], the “combination Emax” value in test [1] (setting [10]) worked out at 0.939. In addition, the Bliss excess in test [2] (setting [10]) is -0.0006.
Take `Cc1cc2ncnn2cc1Nc1ncc2c(n1)n(C1CCOCC1)c(=O)n2C` [AZD7648] + O=C(c1cc(Cc2n[nH]c(=O)c3ccccc23)ccc1F)N1CCN(C(=O)C2CC2)CC1 [Olaparib]: the “combination Emax” value in test [1] (setting [10]) is 0.343. In test [2] (setting [10]), the Bliss excess is -0.0409.
Regarding `C[C@@H](Nc1cc(F)cc(F)c1)c1cc(C(=O)N(C)C)cc2c(=O)cc(N3CCOCC3)oc12` [AZD8186] + C1CN(CCC1(C(=O)N[C@@H](CCO)C2=CC=C(C=C2)Cl)N)C3=NC=NC4=C3C=CN4 [AZD5363], in test [1] (setting [10]), the “combination Emax” value was 0.349. The Bliss excess in test [2] (setting [10]) is -0.0592.
For `C[C@@H](Nc1cc(F)cc(F)c1)c1cc(C(=O)N(C)C)cc2c(=O)cc(N3CCOCC3)oc12` [AZD8186] + CC(=O)c1c(C)c2cnc(Nc3ccc(N4CCNCC4)cn3)nc2n(C2CCCC2)c1=O [Palbociclib], in test [1] (setting [10]), the “combination Emax” value is 0.499. For the same molecule, in test [2] (setting [10]), the Bliss excess was -0.0019.
Taken in the same sequence, the figures for `NC1(C(=O)N[C@@H](CCO)c2ccc(Cl)cc2)CCN(c2ncnc3[nH]ccc23)CC1` [Capivasertib] + CC(=O)c1c(C)c2cnc(Nc3ccc(N4CCNCC4)cn3)nc2n(C2CCCC2)c1=O [Palbociclib] were 0.532 and 0.0018.
